According to ChEMBL document CHEMBL1148405, “Prediction of ligand binding affinity and orientation of xenoestrogens to the estrogen receptor by molecular dynamics simulations and the linear interaction energy method” (J Med Chem, 2004):

Biological target: Estrogen receptor (Ovis aries, UniProt P49885+Q9TU15)
Test: Displacement of [3H]-estradiol (E2) from sheep uterine estrogen receptor

| Compound | Kd [M l-1] |
| --- | --- |
| Oc1ccc2ccc3c4ccccc4cc4ccc1c2c43 | 1.1e-6 |
| Oc1ccc2ccc3c4ccccc4ccc3c2c1 | 4e-6 |
| CC(=O)C1CCC2C3CCC4=CC(O)CCC4(C)C3CCC12C (stereo not given) | > 0.0003 |
| CCC1Cc2cc(O)ccc2C2=C1c1ccc(O)cc1CC2CC (stereo not given) | 3e-9 |
| Oc1ccc(C2COc3cc(O)c(O)cc3C2)cc1 (stereo not given) | 0.000011 |
| Brc1ccccc1-c1ccccc1Br | 0.00016 |
| O=c1c(-c2ccc(O)cc2)coc2cc(O)ccc12 [DAIDZEIN] | 5.9e-6 |
| Oc1ccc2c(cc3ccc4cccc5ccc2c3c45)c1O | 0.000014 |
| Brc1ccc(-c2ccc(Br)cc2)cc1 | > 0.0003 |
| Oc1ccc2c(ccc3c4ccccc4ccc23)c1O | 8.8e-7 |
